Measured values published in US11147784B2, “Dietary supplements and composition for treating cancer” (The Trustees of Princeton University, priority 2013, dated 2021).
Like-named read-outs stand apart in the source and are kept apart here.

Experiments:
[1] = system: HEK293T cells; assay: U13C tracer labeling of the one-carbon unit pool; type: cell-based; conditions: 48 h, ADP purine ring and dTTP methyl labeling
Protocol: In order to determine contribution of the single carbon, cells were cultured with media containing [U ^13C] serine for 48 h, washed three times with cold PBS to remove extracellular serine, extracted, and the intracellular labeling pattern analyzed by LC-MS for ATP (representing purines; there is no labeling of ribose-phosphate based on LC-MS measurements), glycine and serine. See e.g., Fan et al., Nature 510: 298-302, 2014.
Purine ring labeling is indicative of formyl-THF labeling.

[2] = system: ΔMTHFD2 cells; conditions: addition of formate to ΔMTHFD2 cells (from HEK293T)
Protocol: AICAR in wild type HEK293T cells and cells lacking a key enzyme producing formyl-THF, MTHFD2, was measured by LC-MS. See e.g., Fan et al., Nature 510: 298-302, 2014. […] The ΔMTHFD2 cells lacking MTHFD2 were produced from HEK293T cells by CRISPR (clustered regularly interspaced short palindromic repeat)-mediated knockout.

[3] = system: HEK293 cells; conditions: DMEM lacking serine, 3 days
Description: (§1) It is hypothesized that high glycine is driving the backwards SHMT reaction while also impairing the forward reaction by product inhibition.

[4] = system: HEK293 cell; conditions: 3 days
Description: as §1

[5] = system: HEK293T cells; conditions: absence of exogenous serine, 0.4 mM glycine, or addition of 2 mM or 5 mM glycine
Protocol: Cell growth was measured in an incubator containing 5% CO2 at 37° C.

[6] = system: HEK293T cells; conditions: 24 h, +5 mM glycine, DMEM with or without serine
Protocol: (§2) Metabolites were then harvested by quickly aspirating media, washing with PBS buffer, and immediately adding −80° C. 80:20 methanol: water extraction solution at −80° C. Following quenching, the tissue culture dish was incubated at −80° C. for 15 min, and then the cells were scraped from the plate. After centrifuging the cell suspension at 5300×g for 10 min, the supernatant was kept and the debris was re-extracted with −80° C. 80:20 methanol:water. The resulting suspension was centrifuged again and the supernatant was combined with first supernatant. […] LC separation was by reversed-phase ion-pairing chromatography with tributylamine as the ion-pairing agent. MS analysis was on a stand-alone orbitrap mass analyzer (Thermo Scientific) operated in negative ion mode and scanning from m/z 85-1000 at 1 Hz at 100,000 resolution. Data were analyzed using the MAVEN software suite. All observed LC-MS peaks were in analyzed, including those of roughly 100 known water-soluble metabolites.

[7] = system: HEK293T cells; conditions: 24 h, addition of glycine (5 mM)
Protocol: as §2
HEK293T cells were cultured in the conditions described in Example 2. In addition to measuring metabolite concentrations, important metabolite ratios, e.g., NADH/NAD+, NADPH/NADP+, ATP/ADP, were calculated.

[8] = system: HEK293T cells
Protocol: To measure cellular folates, media was removed from HEK293T cells, and replaced with 50:50 methanol:water with 25 mM ammonium acetate and 1% sodium ascorbate, at −20° C. […] After 15 min on ice, the cells were scraped from the dish to further enhance extraction, and the cell-liquid mixture was centrifuged to remove particulate matter. The particulate matter was re-extracted with the same solvent for 15 minutes, and the 2 extracts were combined. The resulting combined extract was treated with rat serum to hydrolyze the polyglutamate chains of folate polyglutamates. […] The resulting mixture was passed through a phenyl solid phase extraction column which removes proteins, highly soluble metabolites, salts and further concentrates the folate species, which were then analyzed by in high resolution LC-MS.

[9] = system: HCT116 cells; conditions: HCT116 xenograft in CD-1-Foxn1nu female mice; high (2×-5× normal) glycine diets
Protocol: Approximately 3×10^6 HCT116 cells (or other tumor-forming transformed cells) are injected on the flank of approximately 8 week CD-1-Foxn1nu female mice (Charles River) or similar rodents. To compare cell lines or gather data more rapidly, different cell lines can be ejected on the 2 flanks (right and left) of each mouse. […] Numbers of mice are selected in order to obtain appropriate statistical power, with 6-20 mice per group typical.

[10] = system: tumor growth; conditions: patients; current best therapy plus glycine supplementation therapy
Description: Individuals providing informed consent to enter the trial are randomized to the current best therapy or current best therapy plus glycine supplementation therapy arms.
The glycine supplementation therapy arm involves providing increased total intake of glycine and/or decreased total intake of serine so as to achieve an increased ratio of glycine to serine intake. The clinical course of patients enrolled in the trial is monitored with respect to endpoints selected based on the disease state, e.g., for stage IV lung cancer, changes in tumor volume, progression-free survival, and overall survival, as well as side effects of the treatment regimen.

[11] = system: NADPH/NADP+ ratio; assay: Cellular effect of anti-folate therapy on the NADPH/NADP+ ratio; type: cell-based; conditions: methotrexate 500 nM

## N[C@@H](CO)C(=O)O [serine, reference compound]
[1]
  contribution to the cellular one-carbon unit pool: contributes to the cellular one-carbon unit pool

## O=CO [formate]
[2]
  AICAR accumulation: eliminates the AICAR accumulation

## NCC(=O)O [glycine]
[1]
  contribution to the cellular one-carbon unit pool: does not contribute one carbon units
[3]; 1× glycine, complete DMEM approximately 1
  Relative NADPH/NADP+: approximately 0.7
[3]; addition of 12× glycine
  Relative NADPH/NADP+: approximately 0.45
[4]; DMEM lacking serine, 1× glycine
  decrease in final cell number relative to growth in complete DMEM: approximately 30%
[4]; serine removal and addition of 12× glycine
  decrease in final cell number relative to growth in complete DMEM: approximately 70%
[5]
  transformed cell growth: inhibits transformed cell growth
[6]
  intracellular serine levels: enhanced
[7]
  ATP/ADP ratio: significantly decreased
  decrease in the NADPH/NADP+ ratio: approximately 2 fold
[8]; glycine addition
  AICAR: rise
[8]; presence of glycine when serine is absent, 1× and 10× relative to standard DMEM
  Formyl-THF and methyl-THF levels: decrease
[9]
  tumor growth and tumor progression: will reduce tumor growth and slow tumor progression
[10]
  tumor growth and tumor progression: will reduce tumor growth and slow tumor progression

## CN(Cc1cnc2nc(N)nc(N)c2n1)c1ccc(C(=O)N[C@@H](CCC(=O)O)C(=O)O)cc1 [methotrexate]
[11]
  NADPH/NADP+ ratio: decrease
